Reference: patent US6376671B1, “2-sulfamoylbenzoic acid derivatives” (Kaken Pharmaceutical Co., Ltd., priority 1997, dated 2002)

What was measured:
LTD4 receptor = molecular target: T1, LTD4 receptor (Cavia porcellus, UniProt Q2NNR5); assay: LTD4 antagonistic effects: LTD4-induced constriction of isolated guinea pig ileum preparations; format: cell-based; conditions: LTD4 0.05-3.5 ng/ml cumulative, 5 min pre-treatment, Van Rossum's method
T1 construct: the ilea were excised and made into ileum preparations; from tissue; host or cells: guinea pig ileum
T1 sequence (Q2NNR5 1-340): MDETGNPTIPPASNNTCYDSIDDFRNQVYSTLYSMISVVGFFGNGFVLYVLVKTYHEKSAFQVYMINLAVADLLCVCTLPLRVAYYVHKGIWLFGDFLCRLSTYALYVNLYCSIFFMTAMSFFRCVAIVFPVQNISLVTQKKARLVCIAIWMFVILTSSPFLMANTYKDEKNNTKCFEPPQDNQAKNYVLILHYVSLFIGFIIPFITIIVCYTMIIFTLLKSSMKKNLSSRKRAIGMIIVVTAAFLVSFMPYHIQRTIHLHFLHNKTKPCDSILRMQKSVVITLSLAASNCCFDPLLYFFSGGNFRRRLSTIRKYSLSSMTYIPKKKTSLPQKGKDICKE
Procedure: (§1) Guinea pigs were bled to death, and the ilea were excised and made into ileum preparations. The ileum preparations were suspended with a 1 g load in Magnus tubes filled with 2 ml Tyrode solution maintained at 37° C. under aeration with a 95% O2-5% CO2 gas mixture, and LTD4-induced constrictions were isotonically recorded.
(§2) After equilibration of the tonuses of the ilea, constrictive responses to cumulative addition of 0.05-3.5 ng/ml LTD4 were observed. After the constrictive responses reached equilibrium, LTD4 was added again cumulatively 5 minutes after pre-treatment with a test substance to induce constriction. The pA2 values were calculated in accordance with Van Rossum's method.

TXA2 receptor = molecular target: T2, TXA2 receptor (Cavia porcellus, UniProt A0A286Y4I8); assay: TXA2 antagonistic effects: U-46619-induced constriction of isolated guinea pig tracheal muscle strips; format: cell-based; conditions: U-46619 cumulative, 5 min pre-treatment, Van Rossum's method
T2 construct: the tracheae were excised and made into tracheal muscle strips; from tissue; host or cells: guinea pig tracheal muscle strips
T2 sequence (A0A286Y4I8 1-347): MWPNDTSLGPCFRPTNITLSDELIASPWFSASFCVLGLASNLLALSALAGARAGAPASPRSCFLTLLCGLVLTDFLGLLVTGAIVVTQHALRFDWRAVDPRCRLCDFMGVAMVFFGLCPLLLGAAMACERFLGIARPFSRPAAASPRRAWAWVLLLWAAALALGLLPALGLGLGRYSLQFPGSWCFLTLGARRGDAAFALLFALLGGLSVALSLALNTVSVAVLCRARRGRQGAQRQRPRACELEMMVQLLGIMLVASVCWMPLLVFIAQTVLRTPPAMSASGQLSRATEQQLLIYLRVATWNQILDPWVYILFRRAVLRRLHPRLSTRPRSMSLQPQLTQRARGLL
Procedure: as §1, with “tracheae” for “ilea”, “tracheal muscle strips in accordance with Takagi et al.” for “ileum preparations.”, “strips” for “ileum preparations”, “U-46619-induced” for “LTD4-induced”
as §2, with “strips,” for “ilea,”, “10^−10−[…] U-46619” for “0.05-3.5 ng/ml LTD4”, “U-46619” for “LTD4”, “cumlatively” for “cumulatively”

[1] = test system: passively sensitized guinea pigs; assay: Antiasthmatic effects: immediate asthmatic response of passively sensitized guinea pigs (airway resistance); format: in vivo, guinea pig; conditions: 3 mg/kg i.v. 5 min before antigen inhalation (1% ovalbumin); airway resistance 5 min after inhalation
Procedure: The antiasthmatic effects were evaluated by the immediate asthmatic responses of passively sensitized guinea pigs. The previous day, the guinea pigs were sensitized by intravenous injections of a 10-fold diluted anti-DNP-ovalbumin guinea pig serum (guinea pig PCA titer; X1024) on the ears. The day of the test, after pre-treatment with pyrilamine (10 mg/kg i.p.), normal airway resitances were measured with a double flow plethysmograph in accordance with Pennock et al. The test substances (3 mg/kg) in DMSO were dissolved in 50% normal guinea pig serum-saline and intravenously injected from the ear vein 5 minutes before inhalation of the antigen. Immediate asthmatic responses were induced by 3 minutes of inhalational exposure to 1% ovalbumin in saline as the antigen from an ultrasonic neblizer, and the airway resistances were measured 5 minutes (4 to 6 minutes) after the inhalation. The results are expressed by the inhibition rates given by the following expression:
Inhibition rate (%)=(1−(A−B)/(C−D))×100
A: the airway resistance with a test substance after inhalation of the antigen,
B: the airway resistance with a test substance before inhalation of the antigen,
C: the airway resistance with a control after inhalation of the antigen,
D: the airway resistance with a control before inhalation of the antigen.

ICR mice = assay: Acute toxicity test in ICR mice; format: in vivo, mouse

Structure (SMILES)	LTD4 inhibitory effect (pA2) (LTD4 receptor)	TXA2 inhibitory effect (pA2) (TXA2 receptor)	Antiasthmatic effect Inhibition rate (%) [1]	Acute toxicity (mortality), intravenous (ICR mice; intravenously 100 mg/kg)	Acute toxicity (mortality), oral (ICR mice; orally 1000 mg/kg)	Kb (LTD4 receptor; read-out: LTD4 inhibitory effect (pA2) (converted))	Kb (TXA2 receptor; read-out: TXA2 inhibitory effect (pA2) (converted))
CC(C)c1csc(COc2cccc(CN(CCCCNS(=O)(=O)c3ccc(Cl)cc3)S(=O)(=O)c3ccccc3C(=O)O)c2)n1 [compound 1, 2-{N-[4-(4-chlorobenzenesulfonylamino)butyl]-N-{3-[(4-isopropyl-2-thiazolyl)methoxy]benzyl}}sulfamoylbenzoic acid]	9.73	8.30	53.5%	none of the mice died	none of the mice died		
CC(C)c1csc(COc2cccc(CN(CCCCNS(=O)(=O)c3ccc(Cl)cc3)S(=O)(=O)c3ccccc3-c3nnn[nH]3)c2)n1 [compound 91, 5-{2-{N-[4-(4-chlorobenzenesulfonylamino)butyl]-N-{3-[(4-isopropyl-2-thiazolyl)methoxy]benzyl}}sulfamoylphenyl}-1H-tetrazole]						0.891 nM	18.6 nM
